In brackets after ≈: the same amount, converted by molar mass.
Assays:
Streptococcus pyogenes [1] = test: In vivo effective dose against experimental infections in rodent caused by Streptococcus pyogenes C203 when administered sc; assay type: functional
Streptococcus pyogenes [2] = test: In vivo effective dose against experimental infections in rodent caused by Streptococcus pyogenes C203 when administered orally; assay type: functional; details: po
Enterococcus faecium = test: In vitro antimicrobial activity against Streptococcus faecium X66; assay type: functional, streptococcus fae-cium
Streptococcus pyogenes [3] = test: In vitro antimicrobial activity against Streptococcus pyogenes C203; assay type: functional
[4] = tested on: Staphylococcus epidermidis; test: In vitro antimicrobial activity against Staphylococcus epidermidis EPI1; assay type: functional
Staphylococcus aureus = test: In vitro antimicrobial activity against Staphylococcus aureus X1; assay type: functional
Streptococcus pneumoniae = test: In vitro antimicrobial activity against Streptococcus pneumoniae; assay type: functional
Haemophilus influenzae = test: In vitro antimicrobial activity against Haemophilus influenzae.; assay type: functional

Row | MIC (Enterococcus faecium) | MIC (Streptococcus pyogenes [3]) | MIC [4] | MIC (Staphylococcus aureus) | MIC (Streptococcus pneumoniae) | MIC (Haemophilus influenzae) | SMILES | ED50 (Streptococcus pyogenes [1]) | ED50 (Streptococcus pyogenes [2])
1 | 4 µg/mL (≈ 4.45 µM) | 0.25 µg/mL (≈ 0.278 µM) | 0.25 µg/mL (≈ 0.278 µM) | 0.25 µg/mL (≈ 0.278 µM) |  | 8 µg/mL (≈ 8.91 µM) | CC[C@H]1OC(=O)C[C@@H](O)[C@H](C)[C@@H](O[C@@H]2O[C@H](C)[C@@H](O)[C@H](N(C)C)[C@H]2O)[C@@H](CCOS(=O)c2ccccc2)C[C@@H](C)C(=O)/C=C/C(C)=C/[C@@H]1CO[C@@H]1O[C@H](C)[C@@H](O)[C@@H](OC)[C@H]1OC (stereo partly drawn) | 5 mg/kg | 45 mg/kg
2 | 8 µg/mL (≈ 9.56 µM) | 0.12 µg/mL (≈ 0.143 µM) | 0.25 µg/mL (≈ 0.299 µM) | 0.25 µg/mL (≈ 0.299 µM) | 2 µg/mL (≈ 2.39 µM) | 16 µg/mL (≈ 19.1 µM) | CC[C@H]1OC(=O)C[C@@H](O)[C@H](C)[C@@H](O[C@@H]2O[C@H](C)[C@@H](O)[C@H](N(C)C)[C@H]2O)[C@@H](CCBr)C[C@@H](C)C(=O)/C=C/C(C)=C/[C@@H]1CO[C@@H]1O[C@H](C)[C@@H](O)[C@@H](OC)[C@H]1OC | 4.5 mg/kg | 19 mg/kg
3 | 16 µg/mL (≈ 18.3 µM) | 0.25 µg/mL (≈ 0.287 µM) | 0.25 µg/mL (≈ 0.287 µM) | 0.5 µg/mL (≈ 0.573 µM) | 2 µg/mL (≈ 2.29 µM) |  | CC[C@H]1OC(=O)C[C@@H](O)[C@H](C)[C@@H](O[C@@H]2O[C@H](C)[C@@H](O)[C@H](N(C)C)[C@H]2O)[C@@H](CCSc2nnnn2C)C[C@@H](C)C(=O)/C=C/C(C)=C/[C@@H]1CO[C@@H]1O[C@H](C)[C@@H](O)[C@@H](OC)[C@H]1OC |  | 50 mg/kg
4 | 32 µg/mL (≈ 34.6 µM) | 0.5 µg/mL (≈ 0.541 µM) | 0.5 µg/mL (≈ 0.541 µM) | 0.5 µg/mL (≈ 0.541 µM) | 4 µg/mL (≈ 4.33 µM) | 64 µg/mL (≈ 69.3 µM) | CC[C@H]1OC(=O)C[C@@H](O)[C@H](C)[C@@H](O[C@@H]2O[C@H](C)[C@@H](O)[C@H](N(C)C)[C@H]2O)[C@@H](CCOC(C(F)(F)F)C(F)(F)F)C[C@@H](C)C(=O)/C=C/C(C)=C/[C@@H]1CO[C@@H]1O[C@H](C)[C@@H](O)[C@@H](OC)[C@H]1OC | > 10 mg/kg | 
5 | > 128 µg/mL | 2 µg/mL (≈ 1.97 µM) | 4 µg/mL (≈ 3.95 µM) | 4 µg/mL (≈ 3.95 µM) | 8 µg/mL (≈ 7.89 µM) | 128 µg/mL (≈ 126 µM) | CC[C@H]1OC(=O)C[C@@H](O)[C@H](C)[C@@H](O[C@@H]2O[C@H](C)[C@@H](O[C@H]3C[C@@](C)(O)[C@@H](O)[C@H](C)O3)[C@H](N(C)C)[C@H]2O)[C@@H](CCN2CCCCCCC2)C[C@@H](C)C(=O)/C=C/C(C)=C/[C@@H]1CO[C@@H]1O[C@H](C)[C@@H](O)[C@@H](OC)[C@H]1OC | > 10 mg/kg | 44 mg/kg
6 | 16 µg/mL (≈ 18.7 µM) | 0.5 µg/mL (≈ 0.585 µM) | 1 µg/mL (≈ 1.17 µM) | 1 µg/mL (≈ 1.17 µM) | 0.5 µg/mL (≈ 0.585 µM) | 32 µg/mL (≈ 37.4 µM) | CC[C@H]1OC(=O)C[C@@H](O)[C@H](C)[C@@H](O[C@@H]2O[C@H](C)[C@@H](O)[C@H](N(C)C)[C@H]2O)[C@@H](CCN2CCCCCCC2)C[C@@H](C)C(=O)/C=C/C(C)=C/[C@@H]1CO[C@@H]1O[C@H](C)[C@@H](O)[C@@H](O)[C@H]1OC | 1.8 mg/kg | 100 mg/kg
7 | 8 µg/mL (≈ 8.62 µM) | 1 µg/mL (≈ 1.08 µM) | 0.5 µg/mL (≈ 0.539 µM) | 0.5 µg/mL (≈ 0.539 µM) | 1 µg/mL (≈ 1.08 µM) | 32 µg/mL (≈ 34.5 µM) | CC[C@H]1OC(=O)C[C@@H](O)[C@H](C)[C@@H](O[C@@H]2O[C@H](C)[C@@H](O)[C@H](N(C)C)[C@H]2O)[C@@H](CCOS(=O)(=O)c2ccc(C)cc2)C[C@@H](C)C(=O)/C=C/C(C)=C/[C@@H]1CO[C@@H]1O[C@H](C)[C@@H](O)[C@@H](OC)[C@H]1OC | 3.1 mg/kg | 5 mg/kg
8 | 16 µg/mL (≈ 20.3 µM) | 0.5 µg/mL (≈ 0.635 µM) | 0.5 µg/mL (≈ 0.635 µM) | 0.5 µg/mL (≈ 0.635 µM) | 4 µg/mL (≈ 5.08 µM) |  | CC[C@H]1OC(=O)C[C@@H](O)[C@H](C)[C@@H](O[C@@H]2O[C@H](C)[C@@H](O)[C@H](N(C)C)[C@H]2O)[C@@H](CCOC)C[C@@H](C)C(=O)/C=C/C(C)=C/[C@@H]1CO[C@@H]1O[C@H](C)[C@@H](O)[C@@H](OC)[C@H]1OC | > 6.3 mg/kg | 
9 | 4 µg/mL (≈ 4.47 µM) | 1 µg/mL (≈ 1.12 µM) | 0.5 µg/mL (≈ 0.559 µM) | 0.5 µg/mL (≈ 0.559 µM) | 1 µg/mL (≈ 1.12 µM) | 16 µg/mL (≈ 17.9 µM) | CC[C@H]1OC(=O)C[C@@H](O)[C@H](C)[C@@H](O[C@@H]2O[C@H](C)[C@@H](O)[C@H](N(C)C)[C@H]2O)[C@@H](CCOc2ccc([N+](=O)[O-])cc2)C[C@@H](C)C(=O)/C=C/C(C)=C/[C@@H]1CO[C@@H]1O[C@H](C)[C@@H](O)[C@@H](OC)[C@H]1OC |  | 5 mg/kg

More lines, now with the values behind:

Row | SMILES | MIC (Enterococcus faecium) | MIC (Streptococcus pyogenes [3]) | MIC [4] | MIC (Staphylococcus aureus) | MIC (Streptococcus pneumoniae) | MIC (Haemophilus influenzae) | ED50 (Streptococcus pyogenes [1]) | ED50 (Streptococcus pyogenes [2])
10 | CC[C@H]1OC(=O)C[C@@H](O)[C@H](C)[C@@H](O[C@@H]2O[C@H](C)[C@@H](O[C@H]3C[C@@](C)(O)[C@@H](O)[C@H](C)O3)[C@H](N(C)C)[C@H]2O)[C@@H](CCNCCc2ccccc2)C[C@@H](C)C(=O)/C=C/C(C)=C/[C@@H]1CO[C@@H]1O[C@H](C)[C@@H](O)[C@@H](OC)[C@H]1OC | 128 µg/mL (≈ 125 µM) | 1 µg/mL (≈ 0.979 µM) | 2 µg/mL (≈ 1.96 µM) | 1 µg/mL (≈ 0.979 µM) | 8 µg/mL (≈ 7.83 µM) | 64 µg/mL (≈ 62.7 µM) | 9.1 mg/kg | 76 mg/kg
11 | CC[C@H]1OC(=O)C[C@@H](O)[C@H](C)[C@@H](O[C@@H]2O[C@H](C)[C@@H](O)[C@H](N(C)C)[C@H]2O)[C@@H](CCOc2ncnc3ccccc23)C[C@@H](C)C(=O)/C=C/C(C)=C/[C@@H]1CO[C@@H]1O[C@H](C)[C@@H](O)[C@@H](OC)[C@H]1OC | 4 µg/mL (≈ 4.43 µM) | 0.5 µg/mL (≈ 0.554 µM) | 0.25 µg/mL (≈ 0.277 µM) | 0.25 µg/mL (≈ 0.277 µM) | 0.5 µg/mL (≈ 0.554 µM) | 16 µg/mL (≈ 17.7 µM) | 5.4 mg/kg | > 50 mg/kg
12 | CCOC(=O)NN(CC[C@H]1C[C@@H](C)C(=O)/C=C/C(C)=C/[C@H](CO[C@@H]2O[C@H](C)[C@@H](O)[C@@H](OC)[C@H]2OC)[C@@H](CC)OC(=O)C[C@@H](O)[C@H](C)[C@H]1O[C@@H]1O[C@H](C)[C@@H](O)[C@H](N(C)C)[C@H]1O)C(=O)OCC | 16 µg/mL (≈ 17.2 µM) | 1 µg/mL (≈ 1.07 µM) | 0.5 µg/mL (≈ 0.536 µM) | 0.5 µg/mL (≈ 0.536 µM) | 1 µg/mL (≈ 1.07 µM) | 32 µg/mL (≈ 34.3 µM) | 2.1 mg/kg | > 5 mg/kg
13 | CC[C@H]1OC(=O)C[C@@H](O)[C@H](C)[C@@H](O[C@@H]2O[C@H](C)[C@@H](O)[C@H](N(C)C)[C@H]2O)[C@@H](CCOc2ccc(OC(C)=O)cc2)C[C@@H](C)C(=O)/C=C/C(C)=C/[C@@H]1CO | 2 µg/mL (≈ 2.73 µM) | 1 µg/mL (≈ 1.36 µM) | 0.5 µg/mL (≈ 0.681 µM) | 1 µg/mL (≈ 1.36 µM) | 0.5 µg/mL (≈ 0.681 µM) | 16 µg/mL (≈ 21.8 µM) | > 30 mg/kg | > 100 mg/kg
14 | CC[C@H]1OC(=O)C[C@@H](O)[C@H](C)[C@@H](O[C@@H]2O[C@H](C)[C@@H](O[C@H]3C[C@@](C)(O)[C@@H](O)[C@H](C)O3)[C@H](N(C)C)[C@H]2O)[C@@H](CCN=[N+]=[N-])C[C@@H](C)C(=O)/C=C/C(C)=C/[C@@H]1CO[C@@H]1O[C@H](C)[C@@H](O)[C@@H](OC)[C@H]1OC | 128 µg/mL (≈ 136 µM) | 2 µg/mL (≈ 2.12 µM) | 1 µg/mL (≈ 1.06 µM) | 2 µg/mL (≈ 2.12 µM) | 32 µg/mL (≈ 33.9 µM) | > 128 µg/mL | 6.3 mg/kg | 
15 | CC[C@H]1OC(=O)C[C@@H](O)[C@H](C)[C@@H](O[C@@H]2O[C@H](C)[C@@H](O[C@H]3C[C@@](C)(O)[C@@H](O)[C@H](C)O3)[C@H](N(C)C)[C@H]2O)[C@@H](CCSc2nnnn2C)C[C@@H](C)C(=O)/C=C/C(C)=C/[C@@H]1CO[C@@H]1O[C@H](C)[C@@H](O)[C@@H](OC)[C@H]1OC | 128 µg/mL (≈ 126 µM) | 1 µg/mL (≈ 0.984 µM) | 1 µg/mL (≈ 0.984 µM) | 0.5 µg/mL (≈ 0.492 µM) | 32 µg/mL (≈ 31.5 µM) | > 128 µg/mL | > 6.3 mg/kg | 
16 | CCOC(=O)c1ccc(OCC[C@H]2C[C@@H](C)C(=O)/C=C/C(C)=C/[C@H](CO[C@@H]3O[C@H](C)[C@@H](O)[C@@H](OC)[C@H]3OC)[C@@H](CC)OC(=O)C[C@@H](O)[C@H](C)[C@H]2O[C@@H]2O[C@H](C)[C@@H](O)[C@H](N(C)C)[C@H]2O)cc1 | 8 µg/mL (≈ 8.68 µM) | 0.5 µg/mL (≈ 0.542 µM) | 0.5 µg/mL (≈ 0.542 µM) | 0.5 µg/mL (≈ 0.542 µM) | 1 µg/mL (≈ 1.08 µM) |  | > 10 mg/kg | 
17 | CC[C@H]1OC(=O)C[C@@H](O)[C@H](C)[C@@H](O[C@@H]2O[C@H](C)[C@@H](O[C@H]3C[C@@](C)(O)[C@@H](O)[C@H](C)O3)[C@H](N(C)C)[C@H]2O)[C@@H](CCOc2ccc([N+](=O)[O-])cc2)C[C@@H](C)C(=O)/C=C/C(C)=C/[C@@H]1CO[C@@H]1O[C@H](C)[C@@H](O)[C@@H](OC)[C@H]1OC | 128 µg/mL (≈ 123 µM) | 2 µg/mL (≈ 1.92 µM) | 1 µg/mL (≈ 0.962 µM) | 1 µg/mL (≈ 0.962 µM) | 16 µg/mL (≈ 15.4 µM) | > 128 µg/mL |  | 

From ChEMBL document CHEMBL1124186, “Synthesis and evaluation of tylosin-related macrolides modified at the aldehyde function: a new series of orally effective antibiotics” (1988)
